Assay results as given in the supplement of paper PMC10307832.

Assays:
Assay in all cases: relative viability (nuclei count vs DMSO), 5 days (fraction); higher = more cells survive
NCI-H322M = system: NCI-H322M
Method in brief: (§1)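 Cells from lung cancer lines were seeded into 1536-well plates and, one day later, dosed by pin tool. Treatments were either a single drug or a fixed dose of an anchor drug with five library-drug doses (not always all listed) in √10 steps. After 5 days, nuclei were stained in a one-step fixation (final 0.05% Triton X-100, 1% formaldehyde, 1 ug/ml Hoechst) and counted on 4× images, and relative viability is the treated-to-vehicle nuclei ratio, as the median of duplicate plates.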

NCI-H1563 = system: NCI-H1563
Method in brief: as §1

NCI-H522 = system: NCI-H522
Method in brief: as §1

CAL-12T = system: CAL-12T
Method in brief: as §1

NCI-H838 = system: NCI-H838
Method in brief: as §1

NCI-H727 = system: NCI-H727
Method in brief: as §1

HCC-15 = system: HCC-15
Method in brief: as §1

COR-L 105 = system: COR-L 105
Method in brief: as §1

BEN = system: BEN
Method in brief: as §1

SW 900 = system: SW 900
Method in brief: as §1

LU99A = system: LU99A
Method in brief: as §1

PC-3 [JPC-3] = system: PC-3 [JPC-3]
Method in brief: as §1

NCI-H1651 = system: NCI-H1651
Method in brief: as §1

NCI-H460 = system: NCI-H460
Method in brief: as §1

NCI-H2023 = system: NCI-H2023
Method in brief: as §1

LK-2 = system: LK-2
Method in brief: as §1

HCC-44 = system: HCC-44
Method in brief: as §1

NCI-H358 = system: NCI-H358
Method in brief: as §1

201T = system: 201T
Method in brief: as §1

ABC-1 = system: ABC-1
Method in brief: as §1

EMC-BAC-2 = system: EMC-BAC-2
Method in brief: as §1

EKVX = system: EKVX
Method in brief: as §1

NCI-H520 = system: NCI-H520
Method in brief: as §1

## Cc1csc(=NC2CCCCC2)n1/N=C/c1ccc(O)c(O)c1O [MIM1] + CCNC(=O)c1noc(-c2cc(C(C)C)c(O)cc2O)c1-c1ccc(CN2CCOCC2)cc1 [Luminespib] (partner 0.01 µM)
NCI-H322M; first compound 0.2 µM
  relative viability: 0.837
NCI-H322M; first compound 0.6325 µM
  relative viability: 0.771
NCI-H322M; first compound 2 µM
  relative viability: 0.832
NCI-H322M; first compound 6.325 µM
  relative viability: 0.729
NCI-H322M; first compound 20 µM
  relative viability: 0.31
NCI-H1563; first compound 0.2 µM
  relative viability: 0.51
NCI-H1563; first compound 0.6325 µM
  relative viability: 0.607
NCI-H1563; first compound 2 µM
  relative viability: 0.519
NCI-H1563; first compound 6.325 µM
  relative viability: 0.553
NCI-H1563; first compound 20 µM
  relative viability: 0.362
NCI-H522; first compound 0.2 µM
  relative viability: 1.23
NCI-H522; first compound 0.6325 µM
  relative viability: 1.05
NCI-H522; first compound 2 µM
  relative viability: 1.03
NCI-H522; first compound 6.325 µM
  relative viability: 1.19
NCI-H522; first compound 20 µM
  relative viability: 0.494
CAL-12T; first compound 0.2 µM
  relative viability: 0.29
CAL-12T; first compound 0.6325 µM
  relative viability: 0.542
CAL-12T; first compound 2 µM
  relative viability: 0.522
CAL-12T; first compound 6.325 µM
  relative viability: 0.281
CAL-12T; first compound 20 µM
  relative viability: 0.328
NCI-H838; first compound 0.2 µM
  relative viability: 0.372
NCI-H838; first compound 0.6325 µM
  relative viability: 0.317
NCI-H838; first compound 2 µM
  relative viability: 0.288
NCI-H838; first compound 6.325 µM
  relative viability: 0.267
NCI-H838; first compound 20 µM
  relative viability: 0.16
NCI-H727; first compound 0.2 µM
  relative viability: 0.353
NCI-H727; first compound 0.6325 µM
  relative viability: 0.309
NCI-H727; first compound 2 µM
  relative viability: 0.386
NCI-H727; first compound 6.325 µM
  relative viability: 0.386
NCI-H727; first compound 20 µM
  relative viability: 0.392
HCC-15; first compound 0.2 µM
  relative viability: 0.244
HCC-15; first compound 0.6325 µM
  relative viability: 0.353
HCC-15; first compound 2 µM
  relative viability: 0.43
HCC-15; first compound 6.325 µM
  relative viability: 0.259
HCC-15; first compound 20 µM
  relative viability: 0.133
COR-L 105; first compound 0.2 µM
  relative viability: 0.721
COR-L 105; first compound 0.6325 µM
  relative viability: 0.918
COR-L 105; first compound 2 µM
  relative viability: 0.813
COR-L 105; first compound 6.325 µM
  relative viability: 0.642
COR-L 105; first compound 20 µM
  relative viability: 0.801
BEN; first compound 0.2 µM
  relative viability: 0.249
BEN; first compound 0.6325 µM
  relative viability: 1.24
BEN; first compound 2 µM
  relative viability: 0.36
BEN; first compound 6.325 µM
  relative viability: 0.329
BEN; first compound 20 µM
  relative viability: 0.173
SW 900; first compound 0.2 µM
  relative viability: 0.174
SW 900; first compound 0.6325 µM
  relative viability: 0.199
SW 900; first compound 2 µM
  relative viability: 0.19
SW 900; first compound 6.325 µM
  relative viability: 0.185
SW 900; first compound 20 µM
  relative viability: 0.2
LU99A; first compound 0.2 µM
  relative viability: 0.227
LU99A; first compound 0.6325 µM
  relative viability: 0.317
LU99A; first compound 2 µM
  relative viability: 0.26
LU99A; first compound 6.325 µM
  relative viability: 0.308
LU99A; first compound 20 µM
  relative viability: 0.219
PC-3 [JPC-3]; first compound 0.2 µM
  relative viability: 0.508
PC-3 [JPC-3]; first compound 0.6325 µM
  relative viability: 0.661
PC-3 [JPC-3]; first compound 2 µM
  relative viability: 0.674
PC-3 [JPC-3]; first compound 6.325 µM
  relative viability: 0.65
PC-3 [JPC-3]; first compound 20 µM
  relative viability: 0.594
NCI-H1651; first compound 0.2 µM
  relative viability: 0.876
NCI-H1651; first compound 0.6325 µM
  relative viability: 0.785
NCI-H1651; first compound 2 µM
  relative viability: 0.617
NCI-H1651; first compound 6.325 µM
  relative viability: 0.67
NCI-H1651; first compound 20 µM
  relative viability: 0.495
NCI-H460; first compound 0.2 µM
  relative viability: 0.0272
NCI-H460; first compound 0.6325 µM
  relative viability: 0.0322
NCI-H460; first compound 2 µM
  relative viability: 0.0432
NCI-H460; first compound 6.325 µM
  relative viability: 0.0284
NCI-H460; first compound 20 µM
  relative viability: 0.0278
NCI-H2023; first compound 0.2 µM
  relative viability: 0.791
NCI-H2023; first compound 0.6325 µM
  relative viability: 0.691
NCI-H2023; first compound 2 µM
  relative viability: 0.646
NCI-H2023; first compound 6.325 µM
  relative viability: 0.388
NCI-H2023; first compound 20 µM
  relative viability: 0.07
LK-2; first compound 0.2 µM
  relative viability: 0.16
LK-2; first compound 2 µM
  relative viability: 0.169
LK-2; first compound 6.325 µM
  relative viability: 0.195
LK-2; first compound 20 µM
  relative viability: 0.171
HCC-44; first compound 0.2 µM
  relative viability: 0.952
HCC-44; first compound 0.6325 µM
  relative viability: 1.04
HCC-44; first compound 2 µM
  relative viability: 0.433
HCC-44; first compound 6.325 µM
  relative viability: 0.735
HCC-44; first compound 20 µM
  relative viability: 0.228
NCI-H358; first compound 0.2 µM
  relative viability: 0.472
NCI-H358; first compound 0.6325 µM
  relative viability: 0.292
NCI-H358; first compound 2 µM
  relative viability: 0.303
NCI-H358; first compound 6.325 µM
  relative viability: 0.204
NCI-H358; first compound 20 µM
  relative viability: 0.211
201T; first compound 0.2 µM
  relative viability: 1.03
201T; first compound 0.6325 µM
  relative viability: 1.05
201T; first compound 2 µM
  relative viability: 1.03
201T; first compound 6.325 µM
  relative viability: 0.548
201T; first compound 20 µM
  relative viability: 0.368
ABC-1; first compound 0.2 µM
  relative viability: 0.499
ABC-1; first compound 0.6325 µM
  relative viability: 0.835
ABC-1; first compound 2 µM
  relative viability: 0.497
ABC-1; first compound 6.325 µM
  relative viability: 0.399
ABC-1; first compound 20 µM
  relative viability: 0.315
EMC-BAC-2; first compound 0.2 µM
  relative viability: 1.12
EMC-BAC-2; first compound 0.6325 µM
  relative viability: 1.14
EMC-BAC-2; first compound 2 µM
  relative viability: 1.13
EMC-BAC-2; first compound 6.325 µM
  relative viability: 1.03
EMC-BAC-2; first compound 20 µM
  relative viability: 0.423
EKVX; first compound 0.2 µM
  relative viability: 0.863
EKVX; first compound 0.6325 µM
  relative viability: 0.766
EKVX; first compound 2 µM
  relative viability: 0.832
EKVX; first compound 6.325 µM
  relative viability: 0.701
EKVX; first compound 20 µM
  relative viability: 0.617
NCI-H520; first compound 0.2 µM
  relative viability: 0.208
NCI-H520; first compound 0.6325 µM
  relative viability: 0.259
NCI-H520; first compound 2 µM
  relative viability: 0.178
NCI-H520; first compound 6.325 µM
  relative viability: 0.274
NCI-H520; first compound 20 µM
  relative viability: 0.257
